Consider 16 compounds from patent publication US7868135B2, “Compositions of lipopeptide antibiotic derivatives and methods of use thereof” (priority 2003, dated 2011).

Starred links: 1 amine or outer side, 2 acyl side, 3 side chain; linkers in the order of their positions; H or OH if unused. Positions of bridges follow the written chain, without caps; N, C: chain ends. Non-standard residues stand in square brackets, D forms with d. Residues, ends and D or L forms follow the SMILES beside them. Groups on a side chain read outwards from the residue. ξ: configuration not given here. *: point of attachment. X22 = CC(NC(=O)[C@H](N)CO)C(N[*:1])C(=O)[*:2]; ξAbu(3ξ-NHCOCH2NH2) = CC(NC(=O)CN)C(N)C(=O)O; ξAbu(βξ-NH2) = CC(N[*:3])C(N[*:1])C(=O)[*:2]; Phac(3-amino) = O=C(Cc1cccc(N[*:1])c1)[*:2]; NH(2-CF3-phenyl) = FC(F)(F)c1ccccc1N*; Pentadecanoyl = CCCCCCCCCCCCCCC(=O)*; ξAsp(βξ-Me) = CC(C(=O)O)C(N)C(=O)O; X2 = O=C(CCc1ccc(N[*:1])cc1)[*:2]; X1 = O=C(Cc1ccc(N[*:1])cc1)[*:2]; Myristoyl = CCCCCCCCCCCCCC(=O)*; ξAbu(3ξ-NH2) = CC(N)C(N)C(=O)O; Undecanoyl = CCCCCCCCCCC(=O)*; Lauroyl = CCCCCCCCCCCC(=O)*; 3Abz = Nc1cccc(C(=O)O)c1; 4Abz = Nc1ccc(C(=O)O)cc1; Octanoyl = CCCCCCCC(=O)*; Pip = O=C(O)[CH]1CCCCN1; ξD = NC(CC(=O)O)C(=O)O; ξPip = O=C(O)C1CCCCN1; CO = O=C([*:1])[*:2]; ξV = CC(C)C(N)C(=O)O; ξP = O=C(O)C1CCCN1

The subject of the first assay is Staphylococcus aureus (MSSA). To be noted: 24 h. The method, then:
(“Approved Standard M7-A3”).
The antimicrobial lipopeptide derivatives described herein were tested for antimicrobial activity against Gram-positive bacteria as follows. The minimum inhibitory concentrations (MIC) of the antimicrobial lipopeptide derivatives of the invention were determined using NCCLS guidelines M7-A6 (2003) with a slight modification in that doubling serial dilutions were used to dilute the test compounds. The broth phase microdilution method was used. Isolated colonies of Staphylococcus aureus (MSSA) from an 18-24 hour blood agar plate cultures were used to inoculate cation adjusted Mueller-Hinton broth (CAMHB) supplemented with 0.625 mM calcium. […] A negative control containing media alone and a positive growth control containing bacteria with media alone were also included. MICs were determined after incubating the plates at about 37° C. for 24 hours. […] In Tables 1 to 16, R is the core cyclic peptide of amphomycin or aspartocin, which can be in the form of a β-isomer, an anhydro, a dianhydro, or any combination thereof. […] Furthermore, a person of skill in the art will appreciate that all the pounds, or groups of compounds, derived from the various combinations of and substituents shown in Tables 1 to 16, are disclosed by the present the same extent as if each compound or group of compounds was set forth individually.
For the compound `CCCCCCCCCCCCCCC(=O)NC(CC(=O)O)C(=O)NC1C(=O)N2CCCCC2C(=O)NC(C(C)C(=O)O)C(=O)NC(CC(=O)O)C(=O)NCC(=O)NC(CC(=O)O)C(=O)NCC(=O)NC(C(C)NC(=O)[C@H](N)CO)C(=O)NC(C(C)C)C(=O)N2CCCC2C(=O)NC1C` (stereo partly drawn) [Compound 262, C15-Amphomycin-(D-Ser)] (Pentadecanoyl-[ξD][ξAbu(βξ-NH2)][ξPip][ξAsp(βξ-Me)][ξD]G[ξD]G[X22][ξV][ξP]; lactam 2-C), the MIC was found to be 4 µg/mL.
In the case of `CCCCCCCCCCCCCCC(=O)NC(CC(=O)O)C(=O)NC1C(=O)N2CCCCC2C(=O)NC(C(C)C(=O)O)C(=O)NC(CC(=O)O)C(=O)NCC(=O)NC(CC(=O)O)C(=O)NCC(=O)NC(C(C)NC(=O)CCCNC(=O)CCCCCN)C(=O)NC(C(C)C)C(=O)N2CCCC2C(=O)NC1C` (stereo not shown) [Compound 72, C15-Amphomycin-9-GABA-Ahx], the MIC is 8 µg/mL.
Still for that read-out and setting: the figure for `CCCCCCCCCCCC(=O)Nc1cccc(CC(=O)NC(CC(=O)O)C(=O)NC2C(=O)N3CCCCC3C(=O)NC(C(C)C(=O)O)C(=O)NC(CC(=O)O)C(=O)NCC(=O)NC(CC(=O)O)C(=O)NCC(=O)NC(C(C)N)C(=O)NC(C(C)C)C(=O)N3CCCC3C(=O)NC2C)c1` (stereo not drawn) [Compound 111, C12-(M-Apa)-Amphomycin] (Lauroyl-[Phac(3-amino)]D[ξAbu(βξ-NH2)][Pip][ξAsp(βξ-Me)]DGDG[ξAbu(3ξ-NH2)]VP; lactam 3-C; configuration not given here) is 0.5 to 1 µg/mL.
Take `CCCCCCCCCCCCCCC(=O)NC(CC(=O)O)C(=O)NC1C(=O)N2CCCCC2C(=O)NC(C(C)C(=O)O)C(=O)NC(CC(=O)O)C(=O)NCC(=O)NC(CC(=O)O)C(=O)NCC(=O)NC(C(C)NC(=O)C(C)(C)N)C(=O)NC(C(C)C)C(=O)N2CCCC2C(=O)NC1C` (stereo not shown) [Compound 161, C15-Amphomycin-9-Aib]: the MIC worked out at 8 µg/mL.
The same measure, in the same setting: the figure for `CCCCCCCCCCCCCCC(=O)NC(CC(=O)O)C(=O)NC1C(=O)N2CCCCC2C(=O)NC(C(C)C(=O)O)C(=O)NC(CC(=O)O)C(=O)NCC(=O)NC(CC(=O)O)C(=O)NCC(=O)NC(C(C)NC(=O)CNC(=O)CCCCC)C(=O)NC(C(C)C)C(=O)N2CCCC2C(=O)NC1C` (stereo not shown) [Compound 81, C15-Amphomycin-9-Gly-C6] is 32 µg/mL; for `CCCCCCCC(=O)Nc1ccc(CC(=O)NC(CC(=O)O)C(=O)NC2C(=O)N3CCCCC3C(=O)NC(C(C)C(=O)O)C(=O)NC(CC(=O)O)C(=O)NCC(=O)NC(CC(=O)O)C(=O)NCC(=O)NC(C(C)N)C(=O)NC(C(C)C)C(=O)N3CCCC3C(=O)NC2C)cc1` (stereo not drawn) [Compound 104, C8-(p-Apa)-Amphomycin] (Octanoyl-[X1]D[ξAbu(βξ-NH2)][Pip][ξAsp(βξ-Me)]DGDG[ξAbu(3ξ-NH2)]VP; lactam 3-C; configuration not given here) it is 2 µg/mL.
The same measure, in the same setting: under `CCCCCCCCCCCCCCC(=O)NC(CC(=O)O)C(=O)NC1C(=O)N2CCCCC2C(=O)NC(C(C)C(=O)O)C(=O)NC(CC(=O)O)C(=O)NCC(=O)NC(CC(=O)O)C(=O)NCC(=O)NC(C(C)NC(=O)Nc2ccccc2C(F)(F)F)C(=O)NC(C(C)C)C(=O)N2CCCC2C(=O)NC1C` (stereo not drawn) [Compound 318, C15-Amphomycin-9-C(═O)—NH—(O—CF3-Phenyl)] (Pentadecanoyl-D[ξAbu(βξ-NH2)][Pip][ξAsp(βξ-Me)]DGDG[ξAbu(βξ-NH2)]([CO-NH(2-CF3-phenyl)])VP; lactam 2-C; configuration not given here) stands 64 µg/mL.
Turning to `CCCCCCCCCCCCCCC(=O)NC(CC(=O)O)C(=O)NC1C(=O)N2CCCCC2C(=O)NC(C(C)C(=O)O)C(=O)NC(CC(=O)O)C(=O)NCC(=O)NC(CC(=O)O)C(=O)NCC(=O)NC(C(C)NC(=O)[C@@H](N)CCC)C(=O)NC(C(C)C)C(=O)N2CCCC2C(=O)NC1C` (stereo partly shown) [Compound 163, C15-Amphomycin-9-Nvl], the MIC amounted to 8 µg/mL.
On the same count and under the same terms, under `CCCCCCCCCCC(=O)Nc1cccc(C(=O)NC(CC(=O)O)C(=O)NC2C(=O)N3CCCCC3C(=O)NC(C(C)C(=O)O)C(=O)NC(CC(=O)O)C(=O)NCC(=O)NC(CC(=O)O)C(=O)NCC(=O)NC(C(C)N)C(=O)NC(C(C)C)C(=O)N3CCCC3C(=O)NC2C)c1` (stereo not drawn) [Compound 294, C11-(M-Aminobenzoyl)-Amphomycin] ({Undecanoyl-3Abz}-D[ξAbu(βξ-NH2)][Pip][ξAsp(βξ-Me)]DGDG[ξAbu(3ξ-NH2)]VP; lactam 2-C; configuration not given here) stands 0.5 µg/mL; under `CCCCCCCCCCCCCC(=O)Nc1ccc(C(=O)NCC(=O)NC(CC(=O)O)C(=O)NC2C(=O)N3CCCCC3C(=O)NC(C(C)C(=O)O)C(=O)NC(CC(=O)O)C(=O)NCC(=O)NC(CC(=O)O)C(=O)NCC(=O)NC(C(C)NC(=O)CN)C(=O)NC(C(C)C)C(=O)N3CCCC3C(=O)NC2C)cc1` (stereo not drawn) [Compound 91, C14-PABA-Gly-Amphomycin-9-Gly] ({Myristoyl-4Abz}-GD[ξAbu(βξ-NH2)][Pip][ξAsp(βξ-Me)]DGDG[ξAbu(3ξ-NHCOCH2NH2)]VP; lactam 3-C; configuration not given here), 2 µg/mL; under `CCCCCCCCCCCCCCCCS(=O)(=O)NC(CC(=O)O)C(=O)NC1C(=O)N2CCCCC2C(=O)NC(C(C)C(=O)O)C(=O)NC(CC(=O)O)C(=O)NCC(=O)NC(CC(=O)O)C(=O)NCC(=O)NC(C(C)NC(=O)CN)C(=O)NC(C(C)C)C(=O)N2CCCC2C(=O)NC1C` (stereo not shown) [Compound 84, CH3—(CH2)15—SO2-Amphomycin-9-Gly], 2 to 4 µg/mL.
In the case of `CCCCCCCCCCCCCCC(=O)NC(CC(=O)O)C(=O)NC1C(=O)N2CCCCC2C(=O)NC(C(C)C(=O)O)C(=O)NC(CC(=O)O)C(=O)NCC(=O)NC(CC(=O)O)C(=O)NCC(=O)NC(C(C)NC(=O)[C@H]2CCCCN2)C(=O)NC(C(C)C)C(=O)N2CCCC2C(=O)NC1C` (stereo partly drawn) [Compound 96, C15-Amphomycin-9-(D-Pip)], the MIC was 1 µg/mL.

The same assay, now with this note: S. aureus (MSSA), CAMHB supplemented with 0.625 mM calcium, 24 hours at about 37° C.; a range = compound tested multiple times.
Take `CCCCCCCCCCCC(=O)Nc1ccc(CCC(=O)Nc2ccc(CCC(=O)NC(CC(=O)O)C(=O)NC3C(=O)N4CCCCC4C(=O)NC(C(C)C(=O)O)C(=O)NC(CC(=O)O)C(=O)NCC(=O)NC(CC(=O)O)C(=O)NCC(=O)NC(C(C)N)C(=O)NC(C(C)C)C(=O)N4CCCC4C(=O)NC3C)cc2)cc1` (stereo not drawn) [Compound 109, C12-(p-Aminophenylpropanoyl)2-Amphomycin] (Lauroyl-[X2][X2]D[ξAbu(βξ-NH2)][Pip][ξAsp(βξ-Me)]DGDG[ξAbu(3ξ-NH2)]VP; lactam 4-C; configuration not given here): the MIC amounted to 2 µg/mL.
Still for that read-out and setting: under “CH3—(CH2)10—NH—C(═O)-(M-Phenylacetyl)-Amphomycin [Compound 362]” stands 0.5 µg/mL; under `CCCCCCCCCCCCCCCC(=O)NC(CC(=O)O)C(=O)NC1C(=O)N2CCCCC2C(=O)NC(C(C)C(=O)O)C(=O)NC(CC(=O)O)C(=O)NCC(=O)NC(CC(=O)O)C(=O)NCC(=O)NC(C(C)NC(=O)CNC(=O)[C@@H](N)CCCCN)C(=O)NC(C(C)C)C(=O)N2CCCC2C(=O)NC1C` (stereo partly shown) [Compound 141, C16-Amphomycin-9-Gly-Lys], 141/2 μg/mL.
Still for that read-out and setting: the figure for `CCCCCCCCCCCCCC(=O)NC(CC(=O)O)C(=O)NC1C(=O)N2CCCCC2C(=O)NC(C(C)C(=O)O)C(=O)NC(CC(=O)O)C(=O)NCC(=O)NC(CC(=O)O)C(=O)NCC(=O)NC(C(C)NC(=O)CNC(=O)[C@@H](N)CCCCN)C(=O)NC(C(C)C)C(=O)N2CCCC2C(=O)NC1C` (stereo partly shown) [Compound 125, C14-Amphomycin-9-Gly-Lys] is 125/1-2 μg/mL.

One may read the MIC as the lowest concentration found to suppress growth.
